Where a name gives a salt, the structure may show the parent alone. Read-outs that look alike come from different tables or passages of the source.
How the values were obtained:
[1] = Enterolignans and conjugates in plasma and milk of sheep fed flaxseed-enriched diets (UPLC-QTOF-MS); format: in vivo; settings: qualitative
Procedure: Eighteen lactating […] (3-4 months in lactation and weighing 66-105 kg) were used and milked twice daily. The animals were parasite-free, and drinking water was available ad libitum. The experimental design was performed with animals stratified according to milk production and number of days post-partum, and then randomly distributed in the experimental groups. The animals were divided into 3 diet groups of 6 animals each. One group of sheep was fed a standard diet, a second group was fed a lignan-enriched diet containing 10% whole flaxseed (Nutricor SL, Leon, Spain) for 2 weeks, and a third group was fed a lignan-enriched diet containing 15% whole flaxseed (Nutricor SL) also for 2 weeks (diet composition is shown in Table 1). Flaxseed amounts and duration of treatment were chosen based on previous studies on cows. Whole flaxseed composition included 20.2% of crude protein, 13.1% of crude fiber and 28.5% of ether extract. All sheep were fed ad libitum twice per day after each milking (09.00 and 18.00 h). Feed intake was not affected by the different experimental diets. […] [29]. The dry residue was dissolved in methanol and filtered (0.22 μm) prior to injection into the ultra-performance liquid chromatography quadrupole time-of-flight mass spectrometry (UPLC-QTOF-MS) equipment. Analyses were developed using an Agilent 1290 Infinity LC system coupled to a 6550 Accurate-Mass QTOF (Agilent Technologies, Waldbronn, Germany) and using an electrospray interface (Jet Stream Technology). Analytical conditions were as previously described with some modifications. Briefly, 5 μL of sample was injected onto a reverse phase Poroshell 120 EC-C18 column (3 × 100 mm, 2.7 μm) (Agilent Technologies) operating at 30 °C. […] The electrospray interface parameters were as follows: gas temperature, 280 °C; drying gas flow, 9 L/min; nebulizer pressure, 35 psi; sheath gas temperature, 400 °C; sheath gas flow, 12 L/min. Spectra were acquired in the m/z range from 100 to 1100 in negative mode and fragmentor voltage was 100 V. Data were processed using Mass Hunter Qualitative Analysis software (version B.06.00 Agilent Technologies). A target screening strategy was applied to plasma and milk samples for the qualitative screening of possible enterolignan-related metabolites. A list of target compounds (60 possible metabolites) covering different phase I and phase II metabolites of parent compound and microbial metabolites was sought in all the samples after MS full-acquisition. Screening was based on mass filtering at the exact mass of the studied compound using narrow mass extraction windows (0.01 m/z). Identification was possible from the valuable information given in QTOF-MS acquisition mode which provides possible molecular formulae for the compounds based on accurate mass and isotopic pattern (Table 2). Additionally, a targeted MS/MS experiment offered fragmentation information for greater reliability in the compound identification process. When possible, direct comparison with authentic standards was performed. Quantification of enterolactone and enterodiol was determined by interpolation in the calibration curve obtained from their own available standards. These metabolites were quantified in MS by peak area integration of their extracted ion chromatograms. Calibration curves were linear from the limit of quantification (LOQ) to 500 nmol/L. […] In the case of conjugated metabolites accurate quantification was not possible due to the absence of available standards and so only qualitative results are provided.

[2] = effect of isoflavones present in soy; cited from earlier work
[3] = Plasma pharmacokinetics of danofloxacin after i.m. administration to lactating sheep fed control or flaxseed-enriched diets; format: in vivo; settings: female, Assaf, im, 1.25 mg/kg, 1.25 mg/kg i.m., mean ± SD; for AUC(0-inf) / Cmax / MRT / Tmax: n = 6; for AUC(0-t): n = 6, read-out: AUC 0–24
Procedure: (§1) Eighteen lactating […] (3-4 months in lactation and weighing 66-105 kg) were used and milked twice daily. The animals were parasite-free, and drinking water was available ad libitum. The experimental design was performed with animals stratified according to milk production and number of days post-partum, and then randomly distributed in the experimental groups. The animals were divided into 3 diet groups of 6 animals each. One group of sheep was fed a standard diet, a second group was fed a lignan-enriched diet containing 10% whole flaxseed (Nutricor SL, Leon, Spain) for 2 weeks, and a third group was fed a lignan-enriched diet containing 15% whole flaxseed (Nutricor SL) also for 2 weeks (diet composition is shown in Table 1). Flaxseed amounts and duration of treatment were chosen based on previous studies on cows. Whole flaxseed composition included 20.2% of crude protein, 13.1% of crude fiber and 28.5% of ether extract. All sheep were fed ad libitum twice per day after each milking (09.00 and 18.00 h). Feed intake was not affected by the different experimental diets. After 2 weeks on the experimental diets, animals in all groups received a single therapeutic dose (1.25 mg/kg, i.m.) of danofloxacin (Advocin 2.5%, Pfizer, Cedex, France). Blood samples (5 mL) were collected from the jugular vein in commercial blood collection tubes (Vacutainer, 10 mL; […] The pharmacokinetic schedule was based on previous studies from our group. […] A complete evacuation of the udder was carried out at each sampling to avoid any dilution effect. Samples were stored at - 20 °C until analysis. Conditions for HPLC analysis of danofloxacin concentrations in plasma and milk were modified according to previously published methods. […] To each 100 μL aliquot of sample, 600 μL of chloroform was added. […] The residue was reconstituted in 100 μL of methanol and injected into the HPLC system. The system consisted of a Waters 600 pump, a Waters 717 plus autosampler, and a Waters 486 fluorescence detector (Waters Corporation, Milford, MA). […] The mobile phase consisted of 25 mM orthophosphoric acid supplemented with 0.1% triethylamine (pH 3.0): acetonitrile (80:20 v/v) at a flow rate of 1.6 mL/min. Sample detection was performed by fluorescence detection at 338 nm (excitation) and 425 nm (emission). Integration was carried out using MILLENNIUM 32 software (Waters). […] Correlation coefficients (r) for danofloxacin ranged between 0.998 and 0.984 for the calibration curves in plasma and milk curves respectively. LOQ were 1.9 ng/mL for sheep plasma and 19 ng/mL for sheep milk. Peak concentration (Cmax) and time-peak concentrations (Tmax) were read from the plotted concentration-time curve for each animal. The area under the plasma concentration-time curves (AUC) was calculated using the linear trapezoidal rule. Mean residence time (MRT) was calculated by the linear trapezoidal rule with extrapolation to time infinity, using the formula: MRT = AUMC/AUC, where AUMC is the mean area under the first moment curve. These calculations were made with a computer program (PK solution 2.0, Summit Research Services, Ashland, OH) and determined by non-compartmental analyses.

[4] = Milk pharmacokinetics (secretion into milk) of danofloxacin after i.m. administration to lactating sheep fed control or flaxseed-enriched diets; format: in vivo; settings: 1.25 mg/kg i.m.; for Kp / AUC(0-t) / AUC(0-inf) / Cmax / MRT / Tmax: female, Assaf, sheep, 1.25 mg/kg, mean ± SD, n = 6; for Kp: milk and plasma, intramuscular, read-out: AUC 0–24 milk/plasma; for AUC(0-t) / AUC(0-inf) / Cmax / MRT / Tmax: milk, im; for AUC(0-t): read-out: AUC 0–24
Procedure: as §1

[5] = sheep fed flaxseed-enriched diets vs. control diet

OC[C@H](Cc1cccc(O)c1)[C@H](CO)Cc1cccc(O)c1 [Enterodiol]
Localization (matrix in which the compound was identified) [1]: Plasma, milk

O=C1OC[C@H](Cc2cccc(O)c2)[C@H]1Cc1cccc(O)c1 [Enterolactone]
Localization (matrix in which the compound was identified) [1]: Plasma, milk

O=C(O)[C@H]1O[C@@H](Oc2cccc(C[C@@H](CO)[C@H](CO)Cc3cccc(O)c3)c2)[C@H](O)[C@@H](O)[C@@H]1O [Enterodiol- glucuronide]
Localization (matrix in which the compound was identified) [1]: Plasma

Enterolactone-glucuronide
Localization (matrix in which the compound was identified) [1]: Plasma

Enterolactone-sulfate
Localization (matrix in which the compound was identified) [1]: Plasma

O=S(=O)(O)Oc1cccc(C[C@@H](CO)[C@H](CO)Cc2cccc(O)c2)c1 [Enterodiol- sulfate]
Localization (matrix in which the compound was identified) [1]: Plasma

CN1C[C@@H]2C[C@H]1CN2c1cc2c(cc1F)c(=O)c(C(=O)O)cn2C1CC1 [danofloxacin]
Reduction of danofloxacin residue in ovine milk [2]: 50% | AUC(0-inf) ([3]; control diet): 1750 ± 380 ng·h/mL | Cmax ([3]; control diet): 310 ± 50 ng/mL | MRT ([3]; control diet): 4.22 ± 0.73 h | Tmax ([3]; control diet): 1.5 ± 0.5 h | AUC(0-t) ([3]; control diet): 1740 ± 370 ng·h/mL | AUC(0-inf) ([3]; flaxseed 10% diet): 1930 ± 250 ng·h/mL | Cmax ([3]; flaxseed 10% diet): 310 ± 60 ng/mL | MRT ([3]; flaxseed 10% diet): 4.77 ± 0.49 h | Tmax ([3]; flaxseed 10% diet): 1.5 ± 0.5 h | AUC(0-t) ([3]; flaxseed 10% diet): 1920 ± 260 ng·h/mL | AUC(0-inf) ([3]; flaxseed 15% diet): 1810 ± 150 ng·h/mL | Cmax ([3]; flaxseed 15% diet): 300 ± 40 ng/mL | MRT ([3]; flaxseed 15% diet): 4.95 ± 0.39 h | Tmax ([3]; flaxseed 15% diet): 1.16 ± 0.37 h | AUC(0-t) ([3]; flaxseed 15% diet): 1790 ± 150 ng·h/mL | Kp ([4]; control diet): 11 ± 1.95 | Kp ([4]; flaxseed 10% diet): 7.81 ± 2.08 | Kp ([4]; flaxseed 15% diet): 7.57 ± 2.1 | AUC(0-t) ([4]; control diet): 19200 ± 5030 ng·h/mL | AUC(0-t) ([4]; flaxseed 10% diet): 14600 ± 1790 ng·h/mL | AUC(0-t) ([4]; flaxseed 15% diet): 13400 ± 3070 ng·h/mL | AUC(0-inf) ([4]; control diet): 19400 ± 5120 ng·h/mL | Cmax ([4]; control diet): 2950 ± 740 ng/mL | MRT ([4]; control diet): 5.35 ± 0.87 h | Tmax ([4]; control diet): 2.66 ± 0.94 h | AUC(0-inf) ([4]; flaxseed 10% diet): 14900 ± 1860 ng·h/mL | Cmax ([4]; flaxseed 10% diet): 2200 ± 350 ng/mL | MRT ([4]; flaxseed 10% diet): 5.25 ± 0.35 h | Tmax ([4]; flaxseed 10% diet): 3 ± 1 h | AUC(0-inf) ([4]; flaxseed 15% diet): 13700 ± 3130 ng·h/mL | Cmax ([4]; flaxseed 15% diet): 1840 ± 440 ng/mL | MRT ([4]; flaxseed 15% diet): 5.54 ± 0.29 h | Tmax ([4]; flaxseed 15% diet): 2.66 ± 0.94 h | Reduction of milk Cmax ([4]; group fed 15% flaxseed vs. control group): ~40% | Reduction of secretion into milk / milk residue ([4]; sheep fed flaxseed diet vs. control): 25–30% | Reduction of AUC0–24 milk-to-plasma ratio [4, 5]: 25–30% | Reduction of milk AUC0–24 [4, 5]: 25–30% | Reduction of milk Cmax [4, 5]: 25–30%

From PMC5769330, “Flaxseed-enriched diets change milk concentration of the antimicrobial danofloxacin in sheep” (BMC Veterinary Research, 2018)
